In ChEMBL document CHEMBL6153109, “Switching Roles─Exploring Concentration-Dependent Agonistic versus Antagonistic Behavior of Integrin Ligands” (J Med Chem, 2025):
Blank lines part the entries; values can stand above or below the molecule they belong to. The source made the active and inactive calls. No cut-off for these calls is given here.

Experiments:
[1] = Drug uptake in human HN cells overexpressing integrin alphaVbeta6 at 1 uM measured within 3 mins by Hoechst 33342 staining based fluorescence analysis; assay type: ADME, cell-based; conditions: 0.05 h
[2] = Drug uptake in human HN cells overexpressing integrin alphaVbeta6 at 1 uM measured at 60 to 300 mins by Hoechst 33342 staining based fluorescence analysis; assay type: ADME, cell-based; conditions: time 60-300 min
[3] = Drug uptake in human OV-MZ-6 cells overexpressing integrin […] at 1 uM measured after 300 mins by Hoechst 33342 staining based fluorescence analysis; assay type: ADME, cell-based; conditions: ov-mz-6, 5 h
[4] = Drug localization in cell membrane of human M21 cells overexpressing integrin alphaVbeta3 at 1 uM measured within 3 mins by CellMask green staining based fluorescence analysis; assay type: ADME, cell membranes; conditions: m21, 0.05 h
[5] = Drug localization in cell membrane of human M21 cells overexpressing integrin alphaVbeta3 at 1 uM measured at 30 mins by CellMask green staining based fluorescence analysis; assay type: ADME, cell membranes; conditions: m21, 0.5 h
[6] = Drug uptake in human M21 cells overexpressing integrin alphaVbeta3 at 1 uM measured at 60 to 300 mins by Hoechst 33342 staining based fluorescence analysis; assay type: ADME, cell-based; conditions: m21, 1 µM, time 60-300 min
[7] = system: OV-MZ-6; experiment: Inhibition of cell migration in human OV-MZ-6 cells expressing integrin alpha5beta1 assessed as delay in wound gap closure at 1 to 1000 nM measured after 72 hrs by wound scratch assay; assay type: functional, cell-based; conditions: dose 1-1000 nM
[8] = target: T1, Integrin alpha-5/beta-1 (Homo sapiens, UniProt P05556+P08648); experiment: Agonist activity at integrin alpha5beta1 in human OV-MZ-6 cells assessed as increase in FAK expression at 1 uM incubated for 24 hrs by Western blot analysis; assay type: cell-based
[9] = target: T2, Integrin alpha-V/beta-3 (Homo sapiens, UniProt P05106+P06756); experiment: Competitive binding affinity to human Integrin alphaVbeta3 incubated for 1 hrs in presence of vitronectin by ELISA based spectrophotometric analysis; assay type: protein-complex assay
[10] = target: T3, Integrin alpha-V/beta-6 (Homo sapiens, UniProt P06756+P18564); experiment: Competitive binding affinity to human Integrin alphaVbeta6 incubated for 1 hrs in presence of […] of TGF-beta1 by ELISA based spectrophotometric analysis; assay type: protein-complex assay
[11] = system: HN; experiment: Effect on cell migration in human HN cells expressing alphaVbeta6 at 1 to 1000 nM measured after 48 hrs by microscopic imaging analysis; assay type: functional, cell-based; conditions: dose 1-1000 nM
[12] = target: T2, Integrin alpha-V/beta-3; experiment: Agonist activity at integrin alphaVbeta3 in human M21 cells assessed as increase in p-FAK expression at 1 uM incubated for 24 hrs by Western blot analysis; assay type: cell-based
[13] = target: T2, Integrin alpha-V/beta-3; experiment: Agonist activity at integrin alphaVbeta3 in human M21 cells assessed as increase in FAK expression at 1 uM incubated for 24 hrs by Western blot analysis; assay type: cell-based
[14] = target: T2, Integrin alpha-V/beta-3; experiment: Agonist activity at integrin alphaVbeta3 in human M21 cells assessed as increase in p-ERK1/2 expression at 1 uM incubated for 24 hrs by Western blot analysis; assay type: cell-based
[15] = target: T2, Integrin alpha-V/beta-3; experiment: Agonist activity at integrin alphaVbeta3 in human M21 cells assessed as increase in ERK1/2 expression at 1 uM incubated for 24 hrs by Western blot analysis; assay type: cell-based
[16] = target: T1, Integrin alpha-5/beta-1; experiment: Agonist activity at integrin alpha5beta1 in human OV-MZ-6 cells assessed as increase in p-FAK expression at 1 uM incubated for 24 hrs by Western blot analysis; assay type: cell-based
[17] = target: T1, Integrin alpha-5/beta-1; experiment: Agonist activity at integrin alpha5beta1 in human OV-MZ-6 cells assessed as increase in ERK1/2 expression at 1 uM incubated for 24 hrs by Western blot analysis; assay type: cell-based
[18] = target: T1, Integrin alpha-5/beta-1; experiment: Agonist activity at integrin alpha5beta1 in human OV-MZ-6 cells assessed as increase in p-ERK1/2 expression at 1 uM incubated for 24 hrs by Western blot analysis; assay type: cell-based
[19] = target: T3, Integrin alpha-V/beta-6; experiment: Agonist activity at integrin alphaVbeta6 in human HN cells assessed as increase in FAK expression at 1 to 1000 nM measured within 60 mins by Western blot analysis; assay type: cell-based; conditions: filed as agonist, dose 1-1000 nM
[20] = target: T1, Integrin alpha-5/beta-1; experiment: Agonist activity at integrin alpha5beta1 in human OV-MZ-6 cells assessed as increase in FAK expression at 1 to 1000 nM measured after 5 to 60 mins by Western blot analysis; assay type: cell-based; conditions: dose 1-1000 nM, time 5-60 min
[21] = target: T3, Integrin alpha-V/beta-6; experiment: Agonist activity at integrin alphaVbeta6 in human HN cells assessed as fold increase in p-FAK expression at 1 nM measured within 30 mins by Western blot analysis (reference value: 1); assay type: cell-based; conditions: filed as agonist
[22] = target: T3, Integrin alpha-V/beta-6; experiment: Agonist activity at integrin alphaVbeta6 in human HN cells assessed as fold increase in p-FAK expression at 1 uM measured within 30 mins by Western blot analysis (reference value: 1); assay type: cell-based; conditions: filed as agonist
[23] = target: T1, Integrin alpha-5/beta-1; experiment: Agonist activity at integrin alpha5beta1 in human OV-MZ-6 cells assessed as fold increase in p-FAK expression at 1 nM measured after 5 to 60 mins by Western blot analysis (reference value: 1); assay type: cell-based; conditions: filed as agonist, time 5-60 min
[24] = system: HN; experiment: Effect on cell migration in human HN cells expressing integrin alphaVbeta6 at 1 to 1000 nM measured after 9 to 24 hrs by wound scratch assay; assay type: functional, cell-based; conditions: dose 1-1000 nM, time 9-24 hrs
[25] = system: OV-MZ-6; experiment: Inhibition of cell migration in human OV-MZ-6 cells expressing integrin alpha5beta1 assessed as delay in wound gap closure at 1 to 1000 nM measured immediately by wound scratch assay; assay type: functional, cell-based; conditions: dose 1-1000 nM

Compound: CC(C)C[C@@H]1NC(=O)[C@H](CC(=O)O)NC(=O)CNC(=O)[C@H](CCCNC(=N)N)NC(=O)[C@H](Cc2ccccc2)NC(=O)[C@H](CCCCNC(=O)CCCCCNC(=O)CCCCC[N+]2=C(/C=C/C=C/C=C3/N(C)c4ccc5ccccc5c4C3(C)C)C(C)(C)c3c2ccc2ccccc32)N(C)C(=O)[C@H]2CCCN2C(=O)[C@H](Cc2ccccc2)NC(=O)[C@H](C)NC1=O
- Drug uptake [1]: Active
- Drug uptake [2]: Active
- Drug uptake [3]: Not_active

- Drug uptake [4]: Active
- Drug uptake [5]: Active
- Drug uptake [6]: Active
- Drug uptake [3]: Active
Compound: COc1ccnc(NCCCOc2ccc(C[C@@H](CC(=O)O)NC(=O)c3ccc(OCCCNC(=O)CCCCCNC(=O)CCCCC[N+]4=C(/C=C/C=C/C=C5/N(C)c6ccc7ccccc7c6C5(C)C)C(C)(C)c5c4ccc4ccccc54)cc3)cc2)c1

- Activity [8]: inactive
- IC50 [9]: > 1000 nM
- IC50 [10]: 0.28 nM
- Activity [12]: inactive
- Activity [13]: inactive
- Activity [14]: inactive
- Activity [15]: inactive
- Activity [16]: inactive
- Activity [17]: inactive
- Activity [18]: inactive
- Activity [19]: Active; Slight Increase Observed
- Activity [20]: inactive
- fold change (FC) [21]: 5
- fold change (FC) [22]: 6
- fold change (FC) [23]: 2.9
Compound: CC(C)C[C@@H]1NC(=O)[C@H](CC(=O)O)NC(=O)CNC(=O)[C@H](CCCNC(=N)N)NC(=O)[C@H](Cc2ccccc2)NC(=O)[C@H](CCCCN)N(C)C(=O)[C@H]2CCCN2C(=O)[C@H](Cc2ccccc2)NC(=O)[C@H](C)NC1=O
- inhibition [7]: inactive
- Activity [11]: inactive
- Activity [24]: inactive
- inhibition [25]: Active
